≈ marks a conversion by molar mass, not a printed value.

The source of these data is EP3134349B1 (priority 2014, dated 2015).

The nature of this series: Water solubility by batch tests at room temperature (saturated solution, headspace GC). The format is physicochemical. How it is done: In particular, in a vial fully filled with distilled water, a volume of pure compound (alone or mixed) in an amount sufficient for obtaining a well detectable precipitate and thus a saturated solution was injected. In order to quantify the solubilized fraction of the compound, the saturated solution was analyzed through gas chromatography of the headspace.

For the setting “pure compound in distilled water”, `ClC(Cl)C(Cl)Cl` [1,1,2,2-TeCA, 1,1,2,2-Tetrachloroethane] returned an Experimental solubility of 2.99 ± 0.18 gL^-1. For the same molecule, for the setting “thermodynamic from solid, mixture of the two compounds 50% V/V, distilled water, no unit printed in this row (other rows gL^-1), read-out: Mixture 50% V/V (experimental water solubility of the component)”, the solubility turned out to be 1470 ± 90 µg/mL (≈ 8.76 mM).
